Structures are written as SMILES.

The test system of assay [1] is cell pairs of adult canine ventricular myocytes and HEK-ChR2 (gap junctional coupling). As to the kind of experiment: Carbenoxolone uncoupling of tandem cell units, dual patch clamp with optical pacing. The class given is cell-based. To be noted: 200 μM carbenoxolone perfusion, light-triggered action potentials before, during and after washout (FIG. 5f). The method, then: Dual patch clamp experiments were performed within 48 hours after plating. Briefly, experiments were carried out on heterologous (HEK-ChR2— canine myocyte) cell pairs within 48 hours after plating, as described previously. A dual whole-cell voltage-clamp method was used to control and record the membrane potential of both cells and to measure associated membrane and junctional currents. Each cell of a pair was voltage clamped at the same potential by two separate patch clamp amplifiers (Axopatch 200, Axon Instruments). To record junctional conductance, brief voltage steps (±10 mV, 400 ms) were applied to one cell of a pair, whereas the other cell was held at constant voltage and the junctional currents were recorded from the unstepped cell. Membrane and action potentials were recorded in current-clamp mode. For electrical recordings, glass coverslips with adherent cells were transferred to an experimental chamber mounted on the stage of an inverted microscope (Olympus-IX71) equipped with a fluorescence imaging system. […] When filled, the resistance of the pipettes measured 1-4MΩ. […] Contractility movies were recorded in response to optical pacing before and during administration of carbenoxolone, and upon washout to assess the role of gap junctional coupling in the functionality of the tandem cell unit.
Background: The patch-clamp technique gives a direct electrical read-out from membranes.

Assay [2] has as its system cardiac syncytium of neonatal rat cardiomyocytes and HEK-ChR2 (gap junctional coupling). The assay can be described thus: Carbenoxolone uncoupling in cardiac syncytium, contractility under optical pacing. To be noted: 200 μM carbenoxolone for 20 min without perfusion, contractility in response to optical pacing. It is filed as cell-based. Here is the method: Carbenoxolone, CBX, (Sigma), a gap junctional uncoupler, was used at a concentration 200 μM in the dual-patch experiments with canine cardiomyocytes and HEK-ChR2 or in the cardiac syncytium of neonatal rat cardiomyocytes and HEK-ChR2. In the latter case, CBX was applied for 20 min (without perfusion) in the co-cultures of HEK-ChR2 cells and cardiomyocytes. Contractility movies were recorded in response to optical pacing before and during administration of carbenoxolone, and upon washout to assess the role of gap junctional coupling in the functionality of the tandem cell unit. Microscopic imaging for confirmation of gene expression or for documenting contractions by optical excitation was done with the Olympus FluoView™ FV1000 confocal system at room temperature. An EMCCD camera (ImagEM EMCCD camera from Hamamatsu, Bridgewater, N.J.) attached to the Olympus FluoView™ FV1000 microscope was used to record contractility movies at 20 fps with 60× oil lens (NA=1.42) using SlideBook 5 software (Intelligent Imaging Innovations, Denver, Colo.). In addition, contractility response was also documented by automatic optical tracking of cell length at 250 Hz using an IonOptix videosystem (IonOptix) attached to a Nikon TE2000 inverted microscope.

Consider `CC1(C)[C@@H](OC(=O)CCC(=O)O)CC[C@]2(C)[C@H]3C(=O)C=C4[C@@H]5C[C@@](C)(C(=O)O)CC[C@]5(C)CC[C@@]4(C)[C@]3(C)CC[C@@H]12` [cabenoxolone, carbenoxolone], for which the “effect of pharmacological uncoupling on light-sensitivity of the myocytes in the TCUs” value in assay [1] and in assay [2] was “abolished the light-sensitivity of the myocytes in the TCUs” each time.
